Patent US20070099983A1, “Aminocyclohexyl ether compounds and uses thereof” (Cardiome Pharma Corp., priority 2003, published 2007)
Where a name gives a salt, the structure may show the parent alone.

Test system: conscious rats
Assay: Determination of CNS toxicity: convulsions in conscious rats on increasing i.v. infusion
Type: in vivo
[1] = minimum i.v. infusion rate at which partial or complete convulsions are observed, conscious rats, maximum rate 64
[2] = total amount of drug infused when partial or complete convulsions are first observed, conscious rats

COc1ccc(CCO[C@H]2CCCCC2N2CCOCC2)cc1OC (stereo partly drawn) [Compound 35, (1R,2R)/(1S,2S)-[2-(4-morpholinyl)-1-(3,4-dimethoxy-phenethoxy)]-cyclohexane]
cum conv dose (rat, in vivo): 113 µmol/kg
convulsion dose (rat, in vivo, iv): 16 µmol/kg/min

Cl.OC1CCN(C2CCCC[C@@H]2OCCc2c(Cl)cccc2Cl)C1 (stereo partly drawn) [Compound 23, (3R)/(3S)-1-{(1R,2R)/(1S,2S)-2-[2-(2,6-dichlorophenyl)-ethoxy]cyclohexyl}-pyrrolidin-3-ol hydrochloride]
cum conv dose (rat, in vivo): 65 µmol/kg
convulsion dose (rat, in vivo, iv): 8 µmol/kg/min

Cl.OC1CCN([C@@H]2CCCC[C@@H]2OCCc2cccc3ccccc23)C1 (stereo partly drawn) [Compound 25, (3R)/(3S)-1-{(1R,2S)/(1S,2R)-2-[2-(1-naphthyl)ethoxy]-cyclohexyl}-pyrrolidin-3-ol hydrochloride]
cum conv dose (rat, in vivo): 70 µmol/kg
convulsion dose (rat, in vivo, iv): 16 µmol/kg/min

COc1ccc(CCOC2CCCC[C@H]2N2CCN(C(=O)Cc3ccc(OC)c(OC)c3)CC2)cc1OC.Cl (stereo partly drawn) [Compound 22, 1-[(3,4-dimethoxyphenyl)acetyl]-4-{(1R,2R)/(1S,2S)-2-[2-(3,4-dimethoxyphenyl)-ethoxy]cyclohexyl}-piperazine hydrochloride]
convulsion dose [1]: 21.33 µmol/kg/min
cum conv dose [2]: 133 µmol/kg

COc1ccc(CCCCO[C@H]2CCCCC2N2CCOCC2)cc1OC.Cl (stereo partly drawn) [Compound 20, 4-{(1R,2R)/(1S,2S)-2-[4-(3,4-dimethoxyphenyl)-butoxy]cyclohexyl}morpholine hydrochloride]
cum conv dose (rat, in vivo): 66.8 µmol/kg
convulsion dose (rat, in vivo, iv): 10.7 µmol/kg/min

c1ccc2c(CCO[C@H]3CCCCC3N3CCOCC3)cccc2c1 (stereo partly drawn) [Compound 31, (1R,2R)/(1S,2S)-[2-(4-morpholinyl)-1-(1-naphthenethoxy)]-cyclohexane]
cum conv dose (rat, in vivo): 93 µmol/kg
convulsion dose (rat, in vivo, iv): 16 µmol/kg/min

Cl.OC1CCN(C2CCCC[C@@H]2OCCc2ccccc2Br)C1 (stereo partly drawn) [Compound 24, (3R)/(3S)-1-{(1R,2R)/(1S,2S)-2-[2-(2-bromophenyl)-ethoxy]cyclohexyl}-pyrrolidin-3-ol hydrochloride]
cum conv dose (rat, in vivo): 67 µmol/kg
convulsion dose (rat, in vivo, iv): 13 µmol/kg/min

COc1ccc(CCO[C@@H]2CCCC[C@H]2N2CC[C@H](O)C2)cc1OC.Cl [Compound 6, (1R,2R)-2-[(3S)-Hydroxypyrrolidinyl]-1-(3,4-dimethoxyphenethoxy) cyclohexane monohydrochloride]
cum conv dose (rat, in vivo): 472.24 µmol/kg
convulsion dose (rat, in vivo, iv): 64 µmol/kg/min

c1ccc2c(CCO[C@H]3CCCCC3N3CCOCC3)csc2c1 (stereo partly shown) [Compound 36]
cum conv dose (rat, in vivo): 65 µmol/kg
convulsion dose (rat, in vivo, iv): 8 µmol/kg/min

COc1ccc(CCOC2CCCC[C@H]2N2CC=CC2)cc1OC.Cl (stereo partly drawn) [Compound 16, 1-{(1R,2R)/(1S,2S)-2-[2-(3,4-dimethoxyphenyl)-ethoxy]cyclohexyl}-2,5-dihydro-1H-pyrrole hydrochloride]
cum conv dose (rat, in vivo): 44.4 µmol/kg
convulsion dose (rat, in vivo, iv): 8 µmol/kg/min

COc1ccc(CCO[C@H]2CCCCC2N2CCC[C@@H]2CO)cc1OC.Cl (stereo partly drawn) [Compound 15, {(2R)-1-{(1R,2R)/(1S,2S)-2-[2-(3,4-dimethoxyphenyl)-ethoxy]cyclohexyl}-pyrrolidin-2-yl}methanol hydrochloride]
cum conv dose (rat, in vivo): 142.33 µmol/kg
convulsion dose (rat, in vivo, iv): 16 µmol/kg/min

Cl.O=C1CCN([C@@H]2CCCCC2OCc2c(Cl)cccc2Cl)C1 (stereo partly drawn) [Compound 45, (1R,2R)/(1S,2S)-2-(3-ketopyrrolidinyl)-1-[(2,6-dichlorophenyl)methoxy]cyclohexane monohydrochloride]
cum conv dose (rat, in vivo): 214 µmol/kg
convulsion dose (rat, in vivo, iv): 32 µmol/kg/min

c1ccc2cc(CCO[C@H]3CCCCC3N3CCOCC3)ccc2c1 (stereo partly drawn) [Compound 30, (1R,2R)/(1S,2S)-[2-(4-morpholinyl)-1-(2-naphthenethoxy)]-cyclohexane]
cum conv dose (rat, in vivo): 85 µmol/kg
convulsion dose (rat, in vivo, iv): 13.3 µmol/kg/min

COc1ccc(CCOC2CCCC[C@H]2N2CCC(F)C2)cc1OC.Cl (stereo partly drawn) [Compound 14, (3R)/(3S)-1-{(1R,2R)/(1S,2S)-2-[2-(3,4-dimethoxyphenyl)-ethoxy]cyclohexyl}-3-fluoropyrrolidine hydrochloride]
cum conv dose (rat, in vivo): 63.33 µmol/kg
convulsion dose (rat, in vivo, iv): 10.67 µmol/kg/min

Cl.OC1CCN(C2CCCC[C@@H]2OCCc2cccc3ccccc23)C1 (stereo partly drawn) [Compound 26, (3R)/(3S)-1-{(1R,2R)/(1S,2S)-2-[2-(1-naphthyl)ethoxy]-cyclohexyl}-pyrrolidin-3-ol hydrochloride]
cum conv dose (rat, in vivo): 67.33 µmol/kg
convulsion dose (rat, in vivo, iv): 8 µmol/kg/min

Cl.O=C1CCN(C2CCCC[C@@H]2OCC(c2ccccc2)c2ccccc2)C1 (stereo partly drawn) [Compound 47, (1R,2R)/(1S,2S)-2-(3-ketopyrrolidinyl)-1-(2,2-diphenylethoxy)cyclo hexane monohydrochloride]
cum conv dose (rat, in vivo): 155 µmol/kg
convulsion dose (rat, in vivo, iv): 21 µmol/kg/min

Cl.OC1CCN(C2CCCC[C@@H]2OCCc2c(Cl)cccc2Cl)C1 (stereo partly drawn) [Compound 46, (1R,2R)/(1S,2S)-2-(3-hydroxypyrrolidinyl)-1-(2,6-dichlorophenethoxy) cyclohexane monohydrochloride]
cum conv dose (rat, in vivo): 65 µmol/kg

c1cc(CCO[C@H]2CCCCC2N2CCOCC2)c2ccsc2c1 (stereo partly shown) [Compound 37]
cum conv dose (rat, in vivo): 54 µmol/kg
convulsion dose (rat, in vivo, iv): 8 µmol/kg/min

COc1ccc(CCO[C@@H]2CCCC[C@H]2N2CC[C@@H](OC(C)=O)C2)cc1OC.Cl [Compound 17, (3R)-1-{(1R,2R)-2-[2-(3,4-dimethoxyphenyl)-ethoxy]cyclohexyl}-pyrrolidin-3-yl acetate hydrochloride]
cum conv dose (rat, in vivo): 74.3 µmol/kg
convulsion dose (rat, in vivo, iv): 13.33 µmol/kg/min

COc1cc(CCCO[C@H]2CCCCC2N2CC[C@@H](O)C2)cc(Cl)c1OC.Cl (stereo partly drawn) [Compound 21, (3R)-1-{(1R,2R)/(1S,2S)-2-[3-(3-chloro-4,5-dimethoxyphenyl)-propoxy]cyclohexyl}pyrrolidin-3-ol hydrochloride]
cum conv dose (rat, in vivo): 90.9 µmol/kg
convulsion dose (rat, in vivo, iv): 13.33 µmol/kg/min

Brc1ccccc1CCO[C@H]1CCCCC1N1CCOCC1 (stereo partly drawn) [Compound 39, (1R,2R)/(1S,2S)-[2-(4-morpholinyl)-1-(2-bromophenethoxy)]-cyclohexane]
cum conv dose (rat, in vivo): 125 µmol/kg
convulsion dose (rat, in vivo, iv): 16 µmol/kg/min

COc1ccc(CCO[C@H]2CCCCC2N2CCC3(C2)OCCO3)cc1OC.Cl (stereo partly drawn) [Compound 9, 7-{(1R,2R)/(1S,2S)-2-[2-(3,4-dimethoxyphenyl)-ethoxy]cyclohexyl}-1,4-dioxa-7-azaspiro[4.4]nonane hydrochloride]
convulsion dose [1]: 16 µmol/kg/min
cum conv dose [2]: 91.33 µmol/kg

COc1ccc(CCO[C@H]2CCCCC2N2CC[C@H](O)C2)cc1OC.Cl (stereo partly drawn) [Compound 5, (1R,2R)/(1S,2S)-2-[(3S)-Hydroxypyrrolidinyl]-1-(3,4-dimethoxyphenethoxy)-cyclohexane monohydrochloride]
cum conv dose (rat, in vivo): 438 µmol/kg
convulsion dose (rat, in vivo, iv): 64 µmol/kg/min

Cl.FC(F)(F)c1ccccc1CCO[C@H]1CCCC[C@H]1N1CCOCC1 (racemic) [Compound 42, (1R,2S)/(1S,2R)-2-(4-morpholinyl)-1-[(2-trifluoromethyl)-phenethoxy]-cyclohexane monohydrochloride]
cum conv dose (rat, in vivo): 102 µmol/kg
convulsion dose (rat, in vivo, iv): 16 µmol/kg/min

COc1ccc(CCOC2CCCC[C@H]2N2CCOCC2)cc1OC.Cl (stereo partly drawn) [Compound 8, 4-{(1R,2R)/(1S,2S)-2-[2-(3,4-dimethoxy-phenyl)ethoxy]cyclohexyl}morpholine hydrochloride]
cum conv dose (rat, in vivo): 113 µmol/kg
convulsion dose (rat, in vivo, iv): 16 µmol/kg/min

Clc1ccc(CCO[C@H]2CCCCC2N2CCOCC2)cc1Cl (stereo partly drawn) [Compound 40, (1R,2R)/(1S,2S)-2-(4-morpholinyl)-1-(3,4-dichlorophenethoxy) cyclohexane]
cum conv dose (rat, in vivo): 118 µmol/kg
convulsion dose (rat, in vivo, iv): 16 µmol/kg/min

COc1ccc(CCO[C@H]2CCCCC2N2CC[C@@H](OCc3ccccc3)C2)cc1OC.Cl (stereo partly drawn) [Compound 12, (3R)-3-benzyloxy-1-{(1R,2R)/(1S,2S)-2-[2-(3,4-dimethoxyphenyl)-ethoxy]cyclohexyl}-pyrrolidine hydrochloride]
cum conv dose (rat, in vivo): 51.1 µmol/kg
convulsion dose (rat, in vivo, iv): 8 µmol/kg/min

COc1ccc(CCO[C@H]2CCCC[C@@H]2N2CC[C@@H](O)C2)cc1OC.Cl [Compound 2, (1S,2S)-2-[(3R)-Hydroxypyrrolidinyl]-1-(3,4-dimethoxyphenethoxy)cyclohexane monohydrochloride]
cum conv dose (rat, in vivo): 500.67 µmol/kg
convulsion dose (rat, in vivo, iv): 64 µmol/kg/min

COc1ccc(CCO[C@H]2CCCCC2N2CC[C@H](OCc3ccccc3)C2)cc1OC.Cl (stereo partly drawn) [Compound 11, (3S)-3-benzyloxy-1-{(1R,2R)/(1S,2S)-2-[2-(3,4-dimethoxyphenyl)-ethoxy]cyclohexyl}-pyrrolidine hydrochloride]
cum conv dose (rat, in vivo): 38.13 µmol/kg
convulsion dose (rat, in vivo, iv): 8 µmol/kg/min

Brc1ccc(CCO[C@H]2CCCCC2N2CCOCC2)cc1 (stereo partly shown) [Compound 32]
cum conv dose (rat, in vivo): 91 µmol/kg
convulsion dose (rat, in vivo, iv): 12 µmol/kg/min

Cl.OC1CCN(C2CCCC[C@@H]2OCCn2ccc3ccccc32)C1 (stereo partly drawn) [Compound 28, (3R)/(3S)-1-{(1R,2R)/(1S,2S)-2-[2-(1H-indol-1-yl)ethoxy]cyclohexyl}pyrrolidin-3-ol hydrochloride]
cum conv dose (rat, in vivo): 113 µmol/kg
convulsion dose (rat, in vivo, iv): 16 µmol/kg/min

COc1ccc(CCO[C@H]2CCCCC2N2CCC(O)C2)cc1OC (stereo partly drawn) [Compound 3, (1R,2R)/(1S,2S)-2-[(3R)/(3S)-Hydroxypyrrolidinyl]-1-(3,4-dimethoxyphenethoxy)-cyclohexane monohydrochloride]
cum conv dose (rat, in vivo): 502 µmol/kg
convulsion dose (rat, in vivo, iv): 64 µmol/kg/min

Cl.O=C1CCN(C2CCCC[C@@H]2OCCc2c(Cl)cccc2Cl)C1 (stereo partly drawn) [Compound 41, (1R,2R)/(1S,2S)-2-(3-ketopyrrolidinyl)-1-(2,6-dichlorophenethoxy) cyclohexane monohydrochloride]
cum conv dose (rat, in vivo): 190 µmol/kg
convulsion dose (rat, in vivo, iv): 32 µmol/kg/min

COc1ccc(CCCO[C@H]2CCCCC2N2CCOCC2)cc1OC.Cl (stereo partly drawn) [Compound 19, 4-{(1R,2R)/(1S,2S)-2-[3-(3,4-dimethoxyphenyl)-propoxy]cyclohexyl}morpholine hydrochloride]
cum conv dose (rat, in vivo): 109 µmol/kg
convulsion dose (rat, in vivo, iv): 16 µmol/kg/min
